Experimental findings from patent US8563547B2, “(6,7-dihydro-2-nitro-5H-imidazol[2,1-b][1,3]oxazin-6-yl) amide compounds, preparation methods and uses thereof” (Shanghai Sun-Sail Pharmaceutical Science & Technology Co., …, priority 2010, dated 2013) are described below.

Each structure is given as a SMILES string. Values after ≈ are worked out from the molar mass of the structure shown. Bounds are passed on as bounds.

Test in all cases: microbe, parasite or virus in culture
What all share (type): cell-based, Mycobacterium tuberculosis

In assay [1] the test system is strain 242: resistant to isoniazide (WHO QC bacterium). Particulars: for MIC: Mycobacterium tuberculosis, read-out: drug-resistance bacteria MIC, 242 (H mono-resistance); for MIC value, times as that of PA-824, isoniazide resistance 242: strain 242, relative to PA-824.
Assay [2] relates to strain 246: resistant to streptomycin (WHO QC bacterium). To be noted: for MIC: Mycobacterium tuberculosis, read-out: drug-resistance bacteria MIC, 246 (S mono-resistance); for MIC value, times as that of PA-824, streptomycin resistance 246: strain 246, relative to PA-824.
Assay [3] relates to strain 261: resistant to rifampicin (WHO QC bacterium). Particulars: for MIC: Mycobacterium tuberculosis, read-out: drug-resistance bacteria MIC, 261 (R mono-resistance); for MIC value, times as that of PA-824, rifampicin resistance 261: strain 261, relative to PA-824.

Regarding `O=C(CCN1CCC(Oc2ccc(OC(F)(F)F)cc2)CC1)N[C@@H]1COc2nc([N+](=O)[O-])cn2C1` [Compound 22, (S)-N-(6,7-dihydro-2-nitro-5H-imidazo [2,1-b][1,3]oxazin-6-yl)-3-(4-(4-(trifluoromethoxy)phenoxy)piperid-1-yl)propanamide], in assay [1], the MIC was found to be 0.5 µg/mL (≈ 1 µM) and the “MIC value, times as that of PA-824, isoniazide resistance 242” value is 2 times. In assay [2], the MIC came out at 0.0625 µg/mL (≈ 0.125 µM) and the “MIC value, times as that of PA-824, streptomycin resistance 246” value is recorded as 8 times. Further, in assay [3], the MIC was less than 0.0312 µg/mL and the “MIC value, times as that of PA-824, rifampicin resistance 261” value turned out to be 16 times.

Turning to `O=C(CN1CCC(Oc2ccc(OC(F)(F)F)cc2)CC1)N[C@@H]1COc2nc([N+](=O)[O-])cn2C1` [Compound 1, (S)-N-(6,7-dihydro-2-nitro-5H-imidazo [2,1-b][1,3]oxazin-6-yl)-2-(4-(4-(trifluoromethoxy)phenoxy)piperid-1-yl)acetamide], in assay [1], the MIC turned out to be 0.5 µg/mL (≈ 1.03 µM) and the “MIC value, times as that of PA-824, isoniazide resistance 242” value is 2 times. Moreover, in assay [2], the MIC was less than 0.0312 µg/mL and the “MIC value, times as that of PA-824, streptomycin resistance 246” value stood at 16 times. In addition, in assay [3], the MIC was less than 0.0312 µg/mL and the “MIC value, times as that of PA-824, rifampicin resistance 261” value is on record as 16 times.

Regarding `O=[N+]([O-])c1cn2c(n1)OC[C@@H](OCc1ccc(OC(F)(F)F)cc1)C2` [PA-824, reference compound], the results for the MIC in assay [1], in assay [2] and in assay [3] were 1 µg/mL (≈ 2.78 µM), 0.5 µg/mL (≈ 1.39 µM) and 0.5 µg/mL (≈ 1.39 µM), respectively.
